Source: article PMC7849013, “Structural Investigations of the Inhibition of Escherichia coli AmpC β-Lactamase by Diazabicyclooctanes” (Antimicrobial Agents and Chemotherapy, 2021)
≈ marks a conversion by molar mass, not a printed value. Where “and” joins values, the source holds several entries; their conditions need not be identical. Equal values may be shown once.

What was measured:
[1] = molecular target: T1, AmpC SBL from Escherichia coli (AmpCEC) (Escherichia coli, UniProt P00811); assay: Steady-state competitive inhibition kinetics of AmpCEC with fluorescent substrate FC-5 (kobs, Kiapp, k2/K); format: biochemical
T1 construct: made in house
Experimental: (§1) Assays were performed and analyzed as described previously ([34]). In summary, assays in the presence of inhibitors were carried out under steady-state conditions monitoring hydrolysis of the fluorescent substrate FC-5 ([33]) in 100 mM phosphate buffer, pH 7.5, supplemented with 0.01% (vol/vol) Triton X-100. Fluorescence was measured using a PHERAstar (BMG Labtech) plate reader, recording emission spectra at an excitation wavelength of 380 nm and emission wavelength of 460 nm. […] The pseudo first-order rate constant, kobs, and the apparent inhibition constant, Kiapp, were obtained by assaying 100 nM AmpCEC with 5 μM FC-5 in the presence of various concentrations of the inhibitor. Reactions were initiated by addition of AmpCEC and immediately monitored continuously over 30 s. […] The second-order rate constant (k2/K) was obtained from linear regression of measured kobs values against inhibitor concentrations (see Fig. S3b in the supplemental material) and corrected by the Michaelis constant (Km) and concentration of the substrate. Kiapps ([50]) were determined by linear regression of the reciprocals of the initial rates against inhibitor concentration (Fig. S3a) and corrected using the experimentally determined substrate Km and substrate concentration. Inhibitor off rates (koff) were measured using the jump-dilution method ([51]); thus, AmpCEC (1 μM) was incubated with the respective inhibitor (10 μM) for 30 min at room temperature and diluted 100,000-fold in the assay buffer to a final enzyme concentration of 10 pM and then immediately assayed using 25 μM (final concentration) FC-5. Off rates were determined from exponential regression in relation to turnover of no enzyme and no inhibitor controls (Fig. S3c). Half-lives of the enzyme-inhibitor complexes were directly calculated from the measured koff values.
Figure S1: Progression curves used in kobs determinations. AmpCEC (100 nM) was assayed using FC-5 (5 μM)
Reactions were initiated by addition of
AmpCEC and immediately monitored, as described in Materials and Methods. Buffer: 50 mM phosphate buffer, pH
7.5 and 0.01% (v/v) Triton X-100. Curves were fitted to Equation 5.
(A) Determination of Kiapp values
for AmpCEC inhibition by DBOs. […]

[2] = test system: DH5α Escherichia coli (wt); assay: MIC by broth microdilution, wild-type strain; format: cell-based; settings: compound alone, read-out: Minimum Inhibitory Concentration
Experimental: (§2) MICs were determined by broth microdilutions in triplicate and interpreted using published guidelines described by the CLSI. […] DBOs were also tested as the sole administered antimicrobial (0.25 to 256 μg ml^−1) against both strains (Table S5).

[3] = test system: DH5α E. coli containing the pAD7-AmpCEC plasmid; assay: MIC by broth microdilution, AmpCEC-producing strain; format: cell-based, Escherichia coli; settings: for MIC: Escherichia coli, read-out: Minimum Inhibitory Concentration, compound alone, DH5α pAD7 AmpCEC
Experimental: as §2

E. coli ATCC 25922 = test system: E. coli ATCC 25922; design: method as in PMID 30861342; settings: E. coli ATCC 25922, compound alone; cited from earlier work
PDC-1 = test system: PDC-1; design: method as in earlier work; settings: ref [2]; cited from earlier work
PDC-3 = test system: PDC-3; design: method as in earlier work; settings: ref [2]; cited from earlier work
ADC-7 = molecular target: ADC-7; design: method as in earlier work; settings: ref [2], cited from earlier work; for Ki: read-out: Kiapp
[4] = molecular target: T1, AmpC SBL from Escherichia coli (AmpCEC); assay: Jump-dilution off-rate of AmpCEC-DBO carbamoyl complexes (FC-5); format: biochemical; settings: jump dilution 100,000-fold; 1 μM AmpCEC preincubated with 10 μM DBO 30 min at room temperature; 25 μM FC-5
Experimental: as §1, with “Inhibitor off rates (koff) were measured using the jump-dilution method ([51]); thus, AmpCEC (1 μM) was incubated with the respective inhibitor (10 μM) for 30 min at room temperature and diluted 100,000-fold in the assay buffer to a final enzyme concentration of 10 pM and then immediately assayed using 25 μM (final concentration) FC-5.” left out, “Half-lives of the enzyme-inhibitor complexes were directly calculated from the measured koff values.” left out

[5] = molecular target: T1, AmpC SBL from Escherichia coli (AmpCEC); assay: AmpCEC inhibition pIC50 with varied preincubation time and pH (FC-5); format: biochemical
Experimental: as §1
pre-incubated with the inhibitors for the indicated times at room temperature and assayed using 5 μM FC-5 [1].
(1 picture or pasted object on this page, not shown here)
AmpCEC (500 pM) was preincubated
with the inhibitors for the indicated times at room temperature, then assayed using 5 μM FC-5 [1]. Buffer: 50 mM
regression (Figure S2), as described in the Materials and Methods.

[6] = molecular target: T1, AmpC SBL from Escherichia coli (AmpCEC); assay: as above; format: biochemical; remark: listed apart in the source
[7] = [DBO] 5.00 µM, 100 nM AmpCEC, 5 μM FC-5
[8] = pIC50, 0 min preincubation, pH 7.5, 500 pM AmpCEC, 5 μM FC-5
[9] = pIC50, 10 min preincubation, pH 7.5
[10] = pIC50, 30 min preincubation, pH 7.5
[11] = pIC50, 60 min preincubation, pH 7.5
[12] = pIC50, 360 min preincubation, pH 7.5, 500 pM AmpCEC, 5 μM FC-5
[13] = pIC50, 0 min preincubation, pH 7.0
[14] = pIC50, 0 min preincubation, pH 8.0
[15] = pIC50, 10 min preincubation, pH 7.0
[16] = pIC50, 10 min preincubation, pH 8.0
[17] = pIC50, 30 min preincubation, pH 7.0
[18] = pIC50, 60 min preincubation, pH 7.0
[19] = pIC50, 60 min preincubation, pH 8.0
[20] = pIC50, 360 min preincubation, pH 7.0
[21] = pIC50, 360 min preincubation, pH 8.0

T1 sequence (P00811 20-377): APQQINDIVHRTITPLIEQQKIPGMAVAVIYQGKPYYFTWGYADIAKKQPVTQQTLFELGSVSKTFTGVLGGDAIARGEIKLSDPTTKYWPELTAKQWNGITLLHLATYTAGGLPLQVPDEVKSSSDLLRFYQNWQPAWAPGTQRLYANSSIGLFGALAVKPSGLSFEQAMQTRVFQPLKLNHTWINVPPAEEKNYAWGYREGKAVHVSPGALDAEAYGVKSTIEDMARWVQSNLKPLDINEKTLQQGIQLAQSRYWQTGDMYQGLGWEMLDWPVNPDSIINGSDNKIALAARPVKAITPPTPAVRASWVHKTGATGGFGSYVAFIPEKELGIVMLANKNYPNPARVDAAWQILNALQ

## NC(=O)[C@@H]1CC[C@@H]2CN1C(=O)N2OS(=O)(=O)O [AVI, avibactam]
[1]; [DBO] 0.04 µM
  kobs: 0.135 ± 0.002
[1]; [DBO] 0.16 µM
  kobs: 0.134 ± 0.001
[1]; [DBO] 0.31 µM
  kobs: 0.135 ± 0.006
[1]; [DBO] 0.63 µM
  kobs: 0.144 ± 0.002
[1]; [DBO] 1.25 µM
  kobs: 0.168 ± 0.008
[1]; [7]
  kobs: 0.305 ± 0.004
[2]
  MIC: 16 µg/mL (≈ 60.3 µM)
[3]
  MIC: 16 µg/mL (≈ 60.3 µM)
E. coli ATCC 25922
  MIC: 16 µg/mL (≈ 60.3 µM)
PDC-1
  k2/K: 2900 (M-1s-1) x 10 3
  t1/2: 6 min
PDC-3
  k2/K: 29 (M-1s-1) x 10 3
  t1/2: 14 min
ADC-7
  Ki: 19 ± 2 µM
  k2/K: 3.9 ± 0.4 (M-1s-1) x 10 3
  t1/2: 33 ± 5 min

## CC(C)(O/N=C(\C(=O)N[C@@H]1C(=O)N2C(C(=O)[O-])=C(C[n+]3ccccc3)CS[C@H]12)c1csc(N)n1)C(=O)O [CAZ, ceftazidime]
[2]
  MIC: 1 µg/mL (≈ 1.83 µM)
[3]
  MIC: 256 µg/mL (≈ 468 µM)

## NCCONC(=O)[C@@H]1CC[C@@H]2CN1C(=O)N2OS(=O)(=O)O [NAC, nacubactam]
[1]
  Ki: 5 ± 0.1 µM
[1]; [DBO] 0.04 µM
  kobs: 0.142 ± 0.003
[1]; [DBO] 0.16 µM
  kobs: 0.142 ± 0.003
[1]; [DBO] 0.31 µM
  kobs: 0.153 ± 0.005
[1]; [DBO] 0.63 µM
  kobs: 0.153 ± 0.002
[1]; [DBO] 1.25 µM
  kobs: 0.185 ± 0.003
[1]; [7]
  kobs: 0.393 ± 0.008
[1]; pH 7.5, read-out: k2/K (carbamoylation rate)
  kinact/KI: 52000 ± 2000 M⁻¹ s⁻¹
[4]
  koff (decarbamoylation rate): 0.049 s^−1, ×10^−3 and 0.049 ± 0.01 s^−1, ×10^−3
[5]; [8]
  IC50: 178 nM
[5]; [9]
  IC50: 66.1 nM
[5]; [10]
  IC50: 34.7 nM
[5]; [11]
  IC50: 13.8 nM
[5]; [12]
  IC50: 2.95 nM
[2]
  MIC: 2 µg/mL (≈ 6.17 µM)
[3]
  MIC: 4 µg/mL (≈ 12.3 µM)
[3]; compound alone, DH5α pAD7 AmpCEC
  Minimum Inhibitory Concentration: 2 µg/mL
[6]; [13]
  IC50: 200 nM
[6]; [14]
  IC50: 141 nM
[6]; [15]
  IC50: 91.2 nM
[6]; [16]
  IC50: 58.9 nM
[6]; [17]
  IC50: 31.6 nM
[6]; [18]
  IC50: 16.2 nM
[6]; [19]
  IC50: 15.1 nM
[6]; [20]
  IC50: 6.46 nM
[6]; [21]
  IC50: 5.13 nM
E. coli ATCC 25922
  MIC: 2 µg/mL (≈ 6.17 µM)

## O=C(NC1CCNCC1)[C@@H]1CC[C@@H]2CN1C(=O)N2OS(=O)(=O)O [REL, relebactam]
[1]
  Ki: 7.1 ± 0.3 µM
[1]; [DBO] 0.04 µM
  kobs: 0.134 ± 0.007
[1]; [DBO] 0.16 µM
  kobs: 0.138 ± 0.003
[1]; [DBO] 0.31 µM
  kobs: 0.136 ± 0.002
[1]; [DBO] 0.63 µM
  kobs: 0.143 ± 0.002
[1]; [DBO] 1.25 µM
  kobs: 0.167 ± 0.005
[1]; [7]
  kobs: 0.314 ± 0.012
[5]; [8]
  IC50: 245 nM
[5]; [9]
  IC50: 107 nM
[5]; [10]
  IC50: 34.7 nM
[5]; [11]
  IC50: 20.4 nM
[5]; [12]
  IC50: 3.89 nM
[2]
  MIC: 128 µg/mL (≈ 367 µM)
[3]
  MIC: 128 µg/mL (≈ 367 µM)
[6]; [13]
  IC50: 166 nM
[6]; [14]
  IC50: 158 nM
[6]; [15]
  IC50: 115 nM
[6]; [16]
  IC50: 63.1 nM
[6]; [17]
  IC50: 49 nM
[6]; [18]
  IC50: 17.4 nM
[6]; [19]
  IC50: 13.2 nM
[6]; [20]
  IC50: 4.17 nM
[6]; [21]
  IC50: 10.5 nM
E. coli ATCC 25922
  MIC: > 64 µg/mL
PDC-3
  k2/K: 46 ± 5 (M-1s-1) x 10 3
  t1/2: 13 ± 4 min
ADC-7
  k2/K: 7.8 ± 0.8 (M-1s-1) x 10 3
  t1/2: 39 ± 4 min

## O=C(NNC(=O)[C@@H]1CC[C@@H]2CN1C(=O)N2OS(=O)(=O)O)[C@@H]1CCCNC1 [ZID, zidebactam]
[1]
  Ki: 0.69 ± 0.04 µM
[1]; [DBO] 0.04 µM
  kobs: 0.150 ± 0.002
[1]; [DBO] 0.16 µM
  kobs: 0.183 ± 0.002
[1]; [DBO] 0.31 µM
  kobs: 0.246 ± 0.002
[1]; [DBO] 0.63 µM
  kobs: 0.357 ± 0.003
[5]; [8]
  IC50: 25.1 nM
[5]; [9]
  IC50: 11 nM
[5]; [10]
  IC50: 7.59 nM
[5]; [11]
  IC50: 4.68 nM
[5]; [12]
  IC50: 3.47 nM
[2]
  MIC: ≤ 0.25 µg/mL
[3]
  MIC: ≤ 0.25 µg/mL
[6]; [13]
  IC50: 34.7 nM
[6]; [14]
  IC50: 17 nM
[6]; [15]
  IC50: 16.6 nM
[6]; [16]
  IC50: 8.13 nM
[6]; [17]
  IC50: 8.71 nM
[6]; [18]
  IC50: 5.75 nM
[6]; [19]
  IC50: 3.89 nM
[6]; [20]
  IC50: 5.25 nM
[6]; [21]
  IC50: 4.37 nM
E. coli ATCC 25922
  MIC: 0.125 µg/mL (≈ 0.319 µM)
PDC-3
  k2/K: 480 ± 70 (M-1s-1) x 10 3
  t1/2: 3 ± 0.4 min
ADC-7
  Ki: 2.3 ± 0.3 µM
  k2/K: 35 ± 4 (M-1s-1) x 10 3
  t1/2: 11 ± 1 min
